Source: ChEMBL document CHEMBL1159224, “A new cytotoxic dihydroxy sterol from the soft coral Alcyonium patagonicum” (J Nat Prod, 1995)
Converted amounts (≈) assume the structure as drawn.

System: P388
Experiment: Cytotoxicity against mouse P388 cells
Format: functional, cell-based

C=C(CC[C@@H](C)[C@H]1CC[C@H]2[C@@H]3C[C@@H](O)C4=C[C@@H](O)CC[C@]4(C)[C@H]3CC[C@]12C)C(C)C
IC50: 1 µg/mL (≈ 2.41 µM)
